The results in this text go back to ChEMBL document CHEMBL1201862, “PubChem BioAssay data set” (2004).

The target of experiment [1] is T1, Mannose-6-phosphate isomerase (Homo sapiens, UniProt P34949).
T1 sequence (P34949 whole entry): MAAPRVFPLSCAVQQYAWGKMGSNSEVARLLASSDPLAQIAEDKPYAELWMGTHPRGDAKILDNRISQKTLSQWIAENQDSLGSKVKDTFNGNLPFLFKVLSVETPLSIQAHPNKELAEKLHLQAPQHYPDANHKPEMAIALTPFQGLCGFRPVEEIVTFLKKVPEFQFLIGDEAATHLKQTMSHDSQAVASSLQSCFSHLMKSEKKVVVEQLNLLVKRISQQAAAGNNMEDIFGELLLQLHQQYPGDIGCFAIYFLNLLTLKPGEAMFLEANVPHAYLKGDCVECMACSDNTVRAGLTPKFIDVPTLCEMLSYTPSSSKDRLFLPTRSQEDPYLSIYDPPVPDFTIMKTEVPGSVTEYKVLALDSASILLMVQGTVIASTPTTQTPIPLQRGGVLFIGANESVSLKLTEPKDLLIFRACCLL
The experiment is described as follows: human PMI inhibitors, high substrate, primary screen, biochemical, fluorescence intensity, high mannose 6-phosphate (AID 1220).

Experiment [2] deals with T2, Carboxy-terminal domain RNA polymerase II polypeptide A small phosphatase 1 (Homo sapiens, UniProt Q9GZU7).
T2 sequence (Q9GZU7 whole entry): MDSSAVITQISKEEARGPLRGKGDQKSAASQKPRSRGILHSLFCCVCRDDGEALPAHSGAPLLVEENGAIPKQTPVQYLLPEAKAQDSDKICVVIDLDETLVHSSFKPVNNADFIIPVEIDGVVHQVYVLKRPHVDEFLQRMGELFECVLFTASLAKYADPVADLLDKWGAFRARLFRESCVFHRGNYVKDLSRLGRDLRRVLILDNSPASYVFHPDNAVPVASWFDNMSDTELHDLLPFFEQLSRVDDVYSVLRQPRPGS
Briefly: inhibitors of CTDSP1, concentration-response testing, biochemical assay, absorbance-based, actives from ultra-high-throughput screening (AID 540297). In kind it is functional.

Experiment [3] can be described thus: cytotoxicity toward DRD oncogenic fibroblasts, dose response, cell-based, non-viral oncogenic, luminescence (AID 1934). In kind it is functional. The following applies: Homo sapiens.
The subject of experiment [4] is BJ. Briefly: cytotoxicity toward BJ-TERT-LT-ST fibroblasts, dose response, cell-based, RAS-independent, luminescence (AID 1935).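 Further: BJ fibroblasts immortalized with TERT plus LT and ST oncogenes.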 It is filed as functional. The following applies: Homo sapiens.
Experiment [5] relates to BJ. The experiment is described as follows: cytotoxicity toward BJ-TERT fibroblasts, dose response, cell-based, RAS-independent, luminescence (AID 1933). It is filed as functional. The following applies: Homo sapiens.
In experiment [6] the test system is BJ. The experiment is described as follows: cells. It is filed as functional, cell-based. The conditions noted are these: Homo sapiens.
In experiment [7] the target is T3, Estrogen receptor beta (Homo sapiens, UniProt Q92731). Briefly: ERβ–SRC-3 coactivator interaction inhibitors, confirmation, orthogonal assay, biochemical, ELISA, streptavidin-HRP readout (AID 1060). Background: In an ELISA, binding on a coated surface is turned into a signal by an enzyme label.
The target of experiment [8] is T3, Estrogen receptor beta.
A further experiment concerns the target T4, Estrogen receptor (Homo sapiens, UniProt P03372).
T4 sequence (P03372 whole entry): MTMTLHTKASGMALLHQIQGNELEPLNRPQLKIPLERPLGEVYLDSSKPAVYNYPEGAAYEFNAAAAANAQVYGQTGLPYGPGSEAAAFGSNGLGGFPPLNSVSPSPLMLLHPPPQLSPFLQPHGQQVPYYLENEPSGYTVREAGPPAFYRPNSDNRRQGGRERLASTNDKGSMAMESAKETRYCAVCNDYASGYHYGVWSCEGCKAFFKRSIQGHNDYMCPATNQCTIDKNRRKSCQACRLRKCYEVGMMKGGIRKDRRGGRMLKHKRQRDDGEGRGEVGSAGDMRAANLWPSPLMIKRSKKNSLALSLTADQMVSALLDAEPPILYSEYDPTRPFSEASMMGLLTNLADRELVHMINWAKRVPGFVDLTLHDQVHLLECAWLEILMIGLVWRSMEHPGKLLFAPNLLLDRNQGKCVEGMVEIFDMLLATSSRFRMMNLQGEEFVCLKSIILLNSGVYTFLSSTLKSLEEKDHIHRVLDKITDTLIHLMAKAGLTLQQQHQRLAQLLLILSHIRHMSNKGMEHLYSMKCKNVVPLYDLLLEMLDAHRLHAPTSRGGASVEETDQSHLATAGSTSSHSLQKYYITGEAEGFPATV

Experiment [9] is described as follows: HEp-2 cell cytotoxicity, dose response, cytotoxicity control for RSV inhibitor project, HTS (AID 2410). It is filed as functional. The conditions noted are these: human respiratory syncytial virus.
Experiment [10] is described as follows: Luminescence Cell-Based Dose Retest to Confirm Inhibitors of Cancer Stem Cells. [Related pubchem assays (depositor defined):AID2717, AID2721]. It is filed as functional. The conditions noted are these: Homo sapiens.
The next experiment has as its system INS1. Briefly: beta cell apoptosis inhibitors, cytokine rescue, dose response, luminescence, retest (AID 449756).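 Further: cell death triggered by IL-1 beta plus TNF-alpha plus IFN-gamma mixture; protective hits raise ATP signal compared with cytokine alone wells.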 It is filed as functional, cell-based. The following applies: Rattus norvegicus.
Experiment [11] addresses T5, Ubiquitin-conjugating enzyme E2 N (Homo sapiens, UniProt P61088).
T5 sequence (P61088 whole entry): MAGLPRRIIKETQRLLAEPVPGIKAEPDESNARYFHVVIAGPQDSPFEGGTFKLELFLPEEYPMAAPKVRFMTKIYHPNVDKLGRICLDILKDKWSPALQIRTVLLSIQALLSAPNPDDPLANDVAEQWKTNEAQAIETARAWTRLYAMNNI
In kind it is functional.

Experiment [12] concerns the target Neurotensin receptor type 1 (Homo sapiens, UniProt P30989). In kind it is functional.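 Further: Image-based confirmatory dose-response assay measuring agonist activity at NTR1; NTR1-expressing U2OS osteosarcoma cells imaged for beta-arrestin GFP spot formation; agonist potency where compounds increase beta-arrestin recruitment.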
A further experiment concerns H9c2. Briefly: cells. In kind it is functional, cell-based. The conditions noted are these: Rattus norvegicus, H9c2, Myocardium.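 Further: confirmatory concentration-response retest of ultra-high-throughput screening hits for modulation of myocardial damage; cell death induced by hydrogen peroxide oxidative stress; compound pretreatment for 60 min then peroxide exposure for 2 h; potency is for protecting the cells against peroxide damage rather than for killing them.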
Experiment [13] deals with T6, Rac GTPase-activating protein 1 (Homo sapiens, UniProt Q9H0H5).
T6 sequence (Q9H0H5 whole entry): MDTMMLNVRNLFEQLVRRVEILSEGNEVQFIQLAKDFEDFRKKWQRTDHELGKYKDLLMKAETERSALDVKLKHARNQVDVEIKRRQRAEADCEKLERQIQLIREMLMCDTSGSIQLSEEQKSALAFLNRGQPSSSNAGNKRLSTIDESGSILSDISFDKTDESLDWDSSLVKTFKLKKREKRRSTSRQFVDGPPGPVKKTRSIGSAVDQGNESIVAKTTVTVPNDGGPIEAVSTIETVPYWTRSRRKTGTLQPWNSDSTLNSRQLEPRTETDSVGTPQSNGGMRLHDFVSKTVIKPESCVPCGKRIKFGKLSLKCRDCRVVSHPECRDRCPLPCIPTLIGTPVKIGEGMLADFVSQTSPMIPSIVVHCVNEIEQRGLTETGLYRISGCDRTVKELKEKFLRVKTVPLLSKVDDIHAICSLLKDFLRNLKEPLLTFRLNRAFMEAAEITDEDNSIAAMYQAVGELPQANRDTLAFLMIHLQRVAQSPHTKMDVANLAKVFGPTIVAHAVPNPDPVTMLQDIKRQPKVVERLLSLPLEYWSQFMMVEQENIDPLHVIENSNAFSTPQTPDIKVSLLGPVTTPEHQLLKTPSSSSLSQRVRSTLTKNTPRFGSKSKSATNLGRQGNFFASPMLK
Briefly: MgcRacGAP GTPase-activating activity inhibitors, confirmation, biochemical, ADP Hunter fluorescence, primary and confirmatory (AID 624330). In kind it is functional.

The nature of experiment [14]: NIH-3T3 fibroblast cytotoxicity, dose response, cytotoxicity control, cell-based, fluorescence, Alamar Blue, secondary assay (AID 2327).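 Further: NIH-3T3 mouse fibroblasts cultured with fluconazole at 8 µg/mL.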 In kind it is functional. On the technique in general: The colour change of resazurin is a common sign of viable cells or microbes.
A short description of experiment [15]: C. albicans growth with fluconazole, confirmation, fluorescence, retest (AID 2467). In kind it is functional, cell-based.
The next experiment addresses Prothrombin (Homo sapiens, UniProt P00734). The experiment is described as follows: Thrombin 1536 HTS Dose Response Confirmation. [Related pubchem assays: 1046 (Thrombin 1536 HTS; hits were confirmed in this assay)]. It is filed as functional.
The nature of experiment [16]: enhancers of respiration in Yfh1-depleted yeast, dose response, Friedreich's ataxia, plus single-dose screen (AID 1465).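 Further: yeast depleted of Yfh1p frataxin homolog grown on glycerol needing respiration; WST-1 tetrazolium dye reduction as measure of cellular dehydrogenase metabolic activity.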 It is filed as functional.
Experiment [17] in a line: growth suppression of PTEN-null colon cells, dose response, cell-based, HCT116 PTEN knockout (AID 1047).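 Further: HCT116 colon tumor cells with PTEN knocked out; cells exposed to compound for 60 hours before readout; potency for loss of cell viability measured by luminescence.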 In kind it is functional.
A short description of experiment [18]: growth suppression of beta-catenin-knockout colon cells, dose response, cell-based, HCT116, human colon tumor (AID 1045).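 Further: HCT116 colon tumor cells with beta catenin knocked out; cells exposed to compound for 60 hours.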 It is filed as functional.

The source made the active and inactive calls.

T3 sequence (Q92731 whole entry): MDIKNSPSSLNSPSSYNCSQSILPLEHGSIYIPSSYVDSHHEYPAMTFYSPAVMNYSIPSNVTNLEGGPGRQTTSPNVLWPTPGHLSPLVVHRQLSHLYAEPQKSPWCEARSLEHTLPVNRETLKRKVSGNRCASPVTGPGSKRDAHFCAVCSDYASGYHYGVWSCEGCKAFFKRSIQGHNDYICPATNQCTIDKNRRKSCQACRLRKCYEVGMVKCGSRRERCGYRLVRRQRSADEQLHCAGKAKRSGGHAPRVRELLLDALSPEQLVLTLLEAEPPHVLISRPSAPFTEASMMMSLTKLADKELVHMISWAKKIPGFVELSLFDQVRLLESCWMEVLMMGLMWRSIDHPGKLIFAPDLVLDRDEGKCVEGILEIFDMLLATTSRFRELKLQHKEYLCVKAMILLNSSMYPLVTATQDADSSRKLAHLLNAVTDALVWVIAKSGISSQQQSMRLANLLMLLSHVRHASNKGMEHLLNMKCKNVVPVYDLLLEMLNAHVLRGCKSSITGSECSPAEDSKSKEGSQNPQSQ
Sequence of Neurotensin receptor type 1 (P30989 whole entry): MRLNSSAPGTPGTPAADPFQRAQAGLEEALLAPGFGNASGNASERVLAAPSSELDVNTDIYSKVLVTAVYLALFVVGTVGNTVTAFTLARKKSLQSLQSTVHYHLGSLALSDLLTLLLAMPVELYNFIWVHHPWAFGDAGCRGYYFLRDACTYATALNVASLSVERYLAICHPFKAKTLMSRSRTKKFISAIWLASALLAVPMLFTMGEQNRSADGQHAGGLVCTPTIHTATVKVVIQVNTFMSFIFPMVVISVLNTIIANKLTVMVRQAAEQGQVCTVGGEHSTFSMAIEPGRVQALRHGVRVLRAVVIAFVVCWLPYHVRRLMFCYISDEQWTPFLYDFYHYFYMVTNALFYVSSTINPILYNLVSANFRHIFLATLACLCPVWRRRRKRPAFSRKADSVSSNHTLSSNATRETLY

As a reminder, the IC50 is the point on the concentration scale where inhibition reaches its midpoint. Regarding `CC(C)CCOc1ccc(C(=O)C[N+]2(C)CCOCC2)cc1`, the concentration for half-maximal inhibition (IC50) was > 50 µM (not active) in experiment [1] and 9.75 µM (active) in experiment [2].
In general, EC50 refers to the concentration needed to bring the measured effect to its halfway point. `Cc1ccc(C(=O)c2ccc(N3CCN(C)CC3)c([N+](=O)[O-])c2)cc1`: the EC50 (in [3]; in the experiment with BJ [4]; with BJ [5]; with BJ [6]) was > 150 µM (not active) in each case.
For `O=S(=O)(Nc1nccs1)c1cc(Cl)ccc1Cl`, the IC50 was 78.6 µM (not active) at Estrogen receptor beta [7], > 50 µM (not active) against Estrogen receptor beta [8] and > 50 µM (not active) against Estrogen receptor.
The term CC50 denotes the concentration at which the toxic effect on the cells reaches its halfway point. On to `CCOC(=O)c1sc(NC(=O)Cn2nnc3sc4c(c3c2=O)CCC(C(C)(C)C)C4)nc1C` (configuration not stated), for which, in “cells”, the IC50 was > 25 µM (active). Besides, in experiment [9], the CC50 is 23.7 µM (active).
Usually AC50 stands for the midpoint of the concentration-response curve, whichever way the signal moves. In the case of `COC(=O)C1=C(C)N(Cc2ccccc2)C(NCc2ccccc2)=N[C@H]1c1cccc(C(F)(F)F)c1`, the AC50 in experiment [10] was 3.27 µM (active); with INS1 it was 8.05 µM (active). In addition, the IC50 in experiment [11] was > 20 µM (inactive). The EC50 in [12] is 13.7 µM (active).
Turning to `COc1ccc(C(=O)c2cc([N+](=O)[O-])ccc2N2CCN(C)CC2)cc1`, the half-maximal effective concentration (EC50) in experiment [3] is 5.04 µM (active); in the experiment on BJ [4], 4.39 µM (active); in the experiment on BJ [5] it was 9.22 µM (inconclusive); with BJ [6] it was 32.9 µM (active).
Regarding `CCOC(=O)c1ccc2[nH]c3c(c2c1)CN(C)CC3`, the IC50 in “cells” was 1.22 µM (active).
For the compound `Oc1ccc(Cl)cc1/C=N/c1ccc2c3c(cccc13)CC2`, the IC50 is > 50 µM (not active) in [1], 9.38 µM (active) in the experiment with H9c2 and 12.9 µM (active) in experiment [13].
Take `O=C1CN2C(=Nc3ccc(Cl)cc3C2c2ccccc2)CN1` (configuration not stated): the IC50 in “cells” is 24.2 µM (active). Moreover, the EC50 in experiment [14] was > 160 µM (inactive); in experiment [15], 3.04 µM (active).
Regarding `Nc1nc(-c2ccc(Cl)cc2)nn1C(=O)c1cccnc1`, the IC50 at Prothrombin is 1.37 µM (active).
Still for that read-out and setting: then `CC(C)C(=O)n1nc(-c2cccnc2)nc1NCc1ccc(F)cc1`, with 0.00567 µM (active).
Regarding `O=C(CCc1ccccc1)Nc1nnc(-c2cccs2)o1`, the concentration for half-maximal inhibition (IC50) at Estrogen receptor beta [8] was > 50 µM (not active).
As to `CN(CCO)c1cc(N2CCC3(CC2)OCCO3)c2nonc2c1[N+](=O)[O-]`, the EC50 in experiment [16] was > 100 µM (active).
On to `CC/C(=N/Nc1ccccc1)c1cnnc(-c2ccccc2)n1`, for which the EC50 in experiment [17] was 60.2 µM (active); in [18], 70.6 µM (active). Further, the half-maximal inhibitory concentration (IC50) was 6.12 µM (not active) against Estrogen receptor beta [7] and > 50 µM (not active) on Estrogen receptor beta [8].
Take `CCCC(=O)n1nc(-c2ccco2)nc1SCc1ccccc1`: the IC50 at Prothrombin was 0.0232 µM (active).
For the compound `CCOC(=O)c1ccc(NC(=O)COc2ccc(-n3cnnn3)cc2)cc1`, the 50% inhibitory concentration (IC50) against Estrogen receptor beta [7] was 0.0598 µM (not active).
Consider `N#C/C(=C/c1ccc(N2CCOCC2)o1)C(=O)N1CCOCC1`, for which the EC50 in experiment [16] was > 100 µM (active).
